This passage reports EC50 results from patent US20210363213A1, “GLUCAGON-GLP-1-GIP TRIPLE AGONIST COMPOUNDS” (priority 2013, published 2021).

The target in one experiment is T1, human GIP R (Homo sapiens, UniProt P48546).
T1 construct: expressed in transfected cells
T1 sequence (P48546 22-466): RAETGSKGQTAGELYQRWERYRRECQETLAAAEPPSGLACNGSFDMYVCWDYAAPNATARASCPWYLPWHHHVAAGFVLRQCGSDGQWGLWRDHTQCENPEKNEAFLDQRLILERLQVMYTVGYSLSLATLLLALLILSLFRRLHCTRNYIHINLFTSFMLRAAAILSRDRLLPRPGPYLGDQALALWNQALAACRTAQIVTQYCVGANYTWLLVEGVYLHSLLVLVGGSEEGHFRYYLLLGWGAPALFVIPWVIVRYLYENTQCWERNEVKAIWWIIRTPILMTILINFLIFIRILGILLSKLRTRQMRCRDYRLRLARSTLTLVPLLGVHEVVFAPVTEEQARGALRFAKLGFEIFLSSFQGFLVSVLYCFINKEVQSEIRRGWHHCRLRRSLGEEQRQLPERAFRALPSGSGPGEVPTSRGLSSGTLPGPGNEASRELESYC
The experiment can be described thus: Human GIP receptor (GIP-R) activity assay, cAMP induction (AlphaScreen) in HEK293 cells. Type of experiment: cell-based.

The next experiment concerns the target T2, human GLP-1 R (Homo sapiens, UniProt P43220).
T2 construct: expressed in transfected cells
The experiment is described as follows: Human GLP-1 receptor (GLP-1-R) activity assay, cAMP induction (AlphaScreen) in HEK293 cells. Type of experiment: cell-based. The conditions noted are these: Table 2b (most comprehensive data); average EC50; cAMP in HEK293 cells expressing human GLP-1 R; read-out: GLP1 R (EC50 in nM).

Where two headings read alike, the source gives them in different places. Numbered stars: 1 amine (or outer) side, 2 acyl side, 3 side chain; on linkers, the order of the positions; unused ones are H or OH. Square brackets hold non-standard residues; d marks the D form. Side chains are listed from the residue outwards. Peptide text beside a SMILES is read from it. * marks the point of attachment. C18 diacid = O=C(O)CCCCCCCCCCCCCCCCC(=O)*; γGlu = O=C(O)[C@H](CCC(=O)[*:2])N[*:1]; Stearoyl = CCCCCCCCCCCCCCCCCC(=O)*; AEEA = NCCOCCOCC(=O)O; Aib = CC(C)(N)C(=O)O

T2 sequence (P43220 24-463): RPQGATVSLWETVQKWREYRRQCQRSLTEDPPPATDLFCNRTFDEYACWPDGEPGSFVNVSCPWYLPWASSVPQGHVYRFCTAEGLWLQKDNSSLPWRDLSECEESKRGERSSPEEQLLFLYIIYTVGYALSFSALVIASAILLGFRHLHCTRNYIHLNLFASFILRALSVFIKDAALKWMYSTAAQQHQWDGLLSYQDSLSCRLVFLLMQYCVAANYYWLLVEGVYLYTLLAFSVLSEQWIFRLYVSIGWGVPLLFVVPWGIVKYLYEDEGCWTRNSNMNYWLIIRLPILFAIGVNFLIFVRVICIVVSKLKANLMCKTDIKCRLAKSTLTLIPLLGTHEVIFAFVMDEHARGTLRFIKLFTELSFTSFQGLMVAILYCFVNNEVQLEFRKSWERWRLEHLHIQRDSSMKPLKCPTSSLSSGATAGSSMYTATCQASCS
Description for human GIP R: (§1) Briefly, HEK293 cells expressing the human GIP R, GLP-1 R or GCG R (stable cell lines generated through transfection of the cDNA for human GIP R, GLP-1 R or GCG R and selection of stable clones) were seeded at 30,000 cells/well in 96-well microtiter plates coated with 0.01% poly-L-lysine, and grown for 1 day in culture in 200 μl growth medium (DMEM, 10% FCS, Penicillin (100 IU/ml), Streptomycin (100 μg/ml)). On the day of analysis, growth medium was removed and the cells were washed once with 150 μl Tyrode's buffer (Tyrode's Salts (9.6 g/I), 10 mM HEPES, pH 7.4). […] The Assay buffer was removed and cells are lysed in 80 μl Lysis buffer (0.1% w/v BSA, 5 mM HEPES, 0.3% v/v Tween-20) per well. From each well 10 μl of lysed cells were transferred to a 384-well plate and mixed with 15 μl bead-mix (1 Unit/15 μl anti-cAMP Acceptor Beads, 1 Unit/15 μl Donor Beads, and 1 Unit/15 μl Biotinylated cAMP in Assay Buffer). The plates were mixed and incubated in the dark for an hour at room temperature before measuring using an Envision™ plate reader (Perkin-Elmer).
(§2) The resulting cAMP curves were plotted as absolute cAMP concentrations (nM) over log (test compound concentration) and analyzed using the curve fitting program XLfit.
(§3) Parameters calculated to describe both the potency as well as the agonistic activity of each test compound on the receptors were:
(§4) EC50, a concentration resulting in a half-maximal elevation of cAMP levels, reflecting the potency of the test compound.
Description for human GLP-1 R: as §1, §2, §3, §4

As to `CC[C@H](C)[C@H](NC(=O)[C@H](CO)NC(=O)[C@H](Cc1ccc(O)cc1)NC(=O)[C@H](CC(=O)O)NC(=O)[C@H](CO)NC(=O)[C@@H](NC(=O)[C@H](Cc1ccccc1)NC(=O)[C@@H](NC(=O)CNC(=O)[C@H](CCC(N)=O)NC(=O)C(C)(C)NC(=O)[C@@H](N)Cc1ccc(O)cc1)[C@@H](C)O)[C@@H](C)O)C(=O)N[C@@H](Cc1ccc(O)cc1)C(=O)N[C@@H](CC(C)C)C(=O)N[C@@H](CC(=O)O)C(=O)N[C@@H](CCCCN)C(=O)N[C@@H](CCCCNC(=O)COCCOCCNC(=O)COCCOCCNC(=O)CC[C@H](NC(=O)CCCCCCCCCCCCCCCCC(=O)O)C(=O)O)C(=O)N[C@@H](C)C(=O)N[C@@H](CCC(N)=O)C(=O)N[C@@H](CCCNC(=N)N)C(=O)N[C@@H](C)C(=O)N[C@@H](Cc1ccccc1)C(=O)N[C@H](C(=O)N[C@@H](CCC(=O)O)C(=O)N[C@@H](Cc1c[nH]c2ccccc12)C(=O)N[C@@H](CC(C)C)C(=O)N[C@@H](CC(C)C)C(=O)N[C@@H](C)C(=O)N[C@@H](CCC(N)=O)C(=O)NCC(=O)N1CCC[C@H]1C(=O)N[C@@H](CO)C(=O)N[C@@H](CO)C(=O)NCC(=O)N[C@@H](C)C(=O)N1CCC[C@H]1C(=O)N1CCC[C@H]1C(=O)N1CCC[C@H]1C(=O)N[C@@H](CO)C(N)=O)C(C)C` [Compound 33] (H-Y[Aib]QGTFTSDYSIYLDKK([AEEA-AEEA-γGlu-C18 diacid])AQRAFVEWLLAQGPSSGAPPPS-NH2), the EC50 on human GIP R (Table 2b (most comprehensive data), average EC50, cAMP in HEK293 cells expressing human GIP R, read-out: GIP R (EC50 in nM)) stood at 0.0099 nM; on human GLP-1 R, 0.0093 nM.

Regarding `CC[C@H](C)[C@H](NC(=O)[C@H](CO)NC(=O)[C@H](Cc1ccc(O)cc1)NC(=O)[C@H](CC(=O)O)NC(=O)[C@H](CO)NC(=O)[C@@H](NC(=O)[C@H](Cc1ccccc1)NC(=O)[C@@H](NC(=O)CNC(=O)[C@H](CCC(N)=O)NC(=O)C(C)(C)NC(=O)[C@@H](N)Cc1ccc(O)cc1)[C@@H](C)O)[C@@H](C)O)C(=O)N[C@@H](Cc1ccc(O)cc1)C(=O)N[C@@H](CC(C)C)C(=O)N[C@@H](CC(=O)O)C(=O)N[C@@H](CCC(=O)O)C(=O)N[C@@H](CCCCN)C(=O)N[C@@H](C)C(=O)N[C@@H](C)C(=O)N[C@@H](CCCCN)C(=O)N[C@@H](CC(=O)O)C(=O)N[C@@H](Cc1ccccc1)C(=O)N[C@H](C(=O)N[C@@H](CCC(=O)O)C(=O)N[C@@H](Cc1c[nH]c2ccccc12)C(=O)N[C@@H](CC(C)C)C(=O)N[C@@H](CC(C)C)C(=O)N[C@@H](CO)C(=O)N[C@@H](C)C(N)=O)C(C)C` [Compound 17] (HELM PEPTIDE1{Y.[Aib].Q.G.T.F.T.S.D.Y.S.I.Y.L.D.E.K.A.A.K.D.F.V.E.W.L.L.S.A.[am]}$$$$V2.0), the EC50 on human GLP-1 R was 0.013 nM.

Consider `CC(C)C[C@H](NC(=O)[C@H](C)NC(=O)[C@H](CCCCN)NC(=O)[C@H](CO)NC(=O)[C@H](Cc1ccc(O)cc1)NC(=O)[C@H](CC(=O)O)NC(=O)[C@H](CO)NC(=O)[C@@H](NC(=O)[C@H](Cc1ccccc1)NC(=O)[C@@H](NC(=O)CNC(=O)[C@H](CCC(N)=O)NC(=O)C(C)(C)NC(=O)[C@@H](N)Cc1ccc(O)cc1)[C@@H](C)O)[C@@H](C)O)C(=O)N[C@@H](CC(=O)O)C(=O)N[C@@H](CCC(=O)O)C(=O)N[C@@H](CCCCN)C(=O)N[C@@H](C)C(=O)N[C@@H](C)C(=O)N[C@@H](CCCCN)C(=O)N[C@@H](CCC(=O)O)C(=O)N[C@@H](Cc1ccccc1)C(=O)N[C@H](C(=O)N[C@@H](CCC(=O)O)C(=O)N[C@@H](Cc1c[nH]c2ccccc12)C(=O)N[C@@H](CC(C)C)C(=O)N[C@@H](CC(C)C)C(=O)N[C@@H](CO)C(=O)N[C@@H](C)C(N)=O)C(C)C` [Compound 21] (HELM PEPTIDE1{Y.[Aib].Q.G.T.F.T.S.D.Y.S.K.A.L.D.E.K.A.A.K.E.F.V.E.W.L.L.S.A.[am]}$$$$V2.0), for which the EC50 at human GLP-1 R is 0.015 nM.

In the case of `CC(C)C[C@H](NC(=O)[C@H](CC(C)C)NC(=O)[C@H](Cc1c[nH]c2ccccc12)NC(=O)[C@H](CCC(=O)O)NC(=O)[C@@H](NC(=O)[C@H](Cc1ccccc1)NC(=O)[C@H](CCC(=O)O)NC(=O)[C@H](CCCCN)NC(=O)[C@H](CCC(N)=O)NC(=O)[C@H](C)NC(=O)[C@H](CCCCN)NC(=O)[C@H](CCCCN)NC(=O)[C@H](CCC(=O)O)NC(=O)[C@H](CC(C)C)NC(=O)[C@H](Cc1ccc(O)cc1)NC(=O)[C@H](CCCCN)NC(=O)[C@H](CO)NC(=O)[C@H](Cc1ccc(O)cc1)NC(=O)[C@H](CC(=O)O)NC(=O)[C@H](CO)NC(=O)[C@@H](NC(=O)[C@H](Cc1ccccc1)NC(=O)[C@@H](NC(=O)CNC(=O)[C@H](CCC(N)=O)NC(=O)C(C)(C)NC(=O)[C@@H](N)Cc1ccc(O)cc1)[C@@H](C)O)[C@@H](C)O)C(C)C)C(=O)N[C@@H](CO)C(=O)N[C@@H](C)C(N)=O` [Compound 22] (HELM PEPTIDE1{Y.[Aib].Q.G.T.F.T.S.D.Y.S.K.Y.L.E.K.K.A.Q.K.E.F.V.E.W.L.L.S.A.[am]}$$$$V2.0), the concentration for a half-maximal effect (EC50) at human GLP-1 R was 0.03 nM.

For `CCCCCCCCCCCCCCCC(=O)N[C@@H](CCC(=O)NCCCC[C@H](NC(=O)[C@H](CCC(=O)O)NC(=O)[C@H](CC(C)C)NC(=O)[C@H](Cc1ccc(O)cc1)NC(=O)[C@@H](NC(=O)[C@H](CO)NC(=O)[C@H](Cc1ccc(O)cc1)NC(=O)[C@H](CC(=O)O)NC(=O)[C@H](CO)NC(=O)[C@@H](NC(=O)[C@H](Cc1ccccc1)NC(=O)[C@@H](NC(=O)CNC(=O)[C@H](CCC(N)=O)NC(=O)C(C)(C)NC(=O)[C@@H](N)Cc1ccc(O)cc1)[C@@H](C)O)[C@@H](C)O)[C@@H](C)CC)C(=O)N[C@@H](CCCCN)C(=O)N[C@@H](C)C(=O)N[C@@H](C)C(=O)N[C@@H](CCCCN)C(=O)N[C@@H](CCC(=O)O)C(=O)N[C@@H](Cc1ccccc1)C(=O)N[C@H](C(=O)N[C@@H](CCC(=O)O)C(=O)N[C@@H](Cc1c[nH]c2ccccc12)C(=O)N[C@@H](CC(C)C)C(=O)N[C@@H](CC(C)C)C(=O)N[C@@H](CO)C(=O)N[C@@H](C)C(N)=O)C(C)C)C(=O)O` [Compound 24] (HELM PEPTIDE1{Y.[Aib].Q.G.T.F.T.S.D.Y.S.I.Y.L.E.K.K.A.A.K.E.F.V.E.W.L.L.S.A.[am]}|PEPTIDE2{[CCCCCCCCCCCCCCCC(=O)[*:2]].[gGlu]}$PEPTIDE1,PEPTIDE2,16:R3-2:R2$$$V2.0), the EC50 on human GLP-1 R was found to be 0.11 nM.

Compound `CC(C)C[C@H](NC(=O)[C@H](CC(C)C)NC(=O)[C@H](Cc1c[nH]c2ccccc12)NC(=O)[C@H](CCC(=O)O)NC(=O)[C@@H](NC(=O)[C@H](Cc1ccccc1)NC(=O)[C@H](CC(=O)O)NC(=O)[C@H](CCCNC(=N)N)NC(=O)[C@H](C)NC(=O)[C@H](C)NC(=O)[C@H](CCCCN)NC(=O)[C@H](CO)NC(=O)[C@H](CC(=O)O)NC(=O)[C@H](CC(C)C)NC(=O)[C@H](Cc1ccc(O)cc1)NC(=O)[C@H](CCCCN)NC(=O)[C@H](CO)NC(=O)[C@H](Cc1ccc(O)cc1)NC(=O)[C@H](CC(=O)O)NC(=O)[C@H](CO)NC(=O)[C@@H](NC(=O)[C@H](Cc1ccccc1)NC(=O)[C@@H](NC(=O)CNC(=O)[C@H](CCC(N)=O)NC(=O)C(C)(C)NC(=O)[C@@H](N)Cc1ccc(O)cc1)[C@@H](C)O)[C@@H](C)O)C(C)C)C(=O)N[C@@H](CO)C(=O)N[C@@H](C)C(N)=O` [Compound 6] (HELM PEPTIDE1{Y.[Aib].Q.G.T.F.T.S.D.Y.S.K.Y.L.D.S.K.A.A.R.D.F.V.E.W.L.L.S.A.[am]}$$$$V2.0) came in with a half-maximal effective concentration (EC50) at human GIP R of 0.32 nM.

As to `CCCCCCCCCCCCCCCCCC(=O)N[C@@H](CCC(=O)NCCOCCOCC(=O)NCCOCCOCC(=O)NCCCC[C@H](NC(=O)[C@H](CCCCN)NC(=O)[C@H](CCC(=O)O)NC(=O)[C@H](CC(C)C)NC(=O)[C@H](C)NC(=O)[C@@H](NC(=O)[C@H](CO)NC(=O)[C@H](Cc1ccc(O)cc1)NC(=O)[C@H](CC(=O)O)NC(=O)[C@H](CO)NC(=O)[C@@H](NC(=O)[C@H](Cc1ccccc1)NC(=O)[C@@H](NC(=O)CNC(=O)[C@H](CCC(N)=O)NC(=O)C(C)(C)NC(=O)[C@@H](N)Cc1ccc(O)cc1)[C@@H](C)O)[C@@H](C)O)[C@@H](C)CC)C(=O)N[C@@H](C)C(=O)N[C@@H](CCC(N)=O)C(=O)N[C@@H](CCCNC(=N)N)C(=O)N[C@@H](C)C(=O)N[C@@H](Cc1ccccc1)C(=O)N[C@H](C(=O)N[C@@H](CCC(=O)O)C(=O)N[C@@H](Cc1c[nH]c2ccccc12)C(=O)N[C@@H](CC(C)C)C(=O)N[C@@H](CC(C)C)C(=O)N[C@@H](C)C(=O)N[C@@H](CCC(N)=O)C(=O)N[C@@H](CCCCN)C(N)=O)C(C)C)C(=O)O` [Compound 46] (H-Y[Aib]QGTFTSDYSIALEKK([AEEA-AEEA-γGlu-Stearoyl])AQRAFVEWLLAQK-NH2), the concentration for a half-maximal effect (EC50) at human GLP-1 R was 0.016 nM.
